Experimental data taken from patent US7928121B2, “5-HT7 receptor antagonists” (Laboratorios Del Dr. Esteve, S.A., priority 2004, dated 2011).
Counter-ions that a name gives are not always drawn.

Molecular target: T1, Cloned Human Serotonin Receptor, Subtype 7 (h5HT7) (Homo sapiens, UniProt P34969)
T1 construct: purchased PerkinElmer 6120512; host or cells: CHO cells (membranes coated on Basic FlashPlate SMP200)
Assay: Radioligand binding assay, cloned human serotonin receptor subtype 7 (h5HT7) expressed in CHO cells, [125I]LSD, Flashplate
Conditions: radioligand [125I]LSD 0.82 nM, room temperature, 240 minutes, triplicate determinations, read-out: 5-HT7 IC-50
Method: Biological Assays Radioligand Binding
Radioligand binding assays were performed using the Cloned Human Serotonin Receptor, Subtype 7 (h5HT7), expressed in CHO cells, coated on Flashplate (Basic FlashPlate Cat.: SMP200) from PerkinElmer (Cat.: 6120512). The protocol assay was essentially the recommended protocol in the Technical Data Sheet by PerkinEmer Life and Analytical Sciences. The Mass membrane protein/well was typically 12 μg and the Receptor/well was about 9-10 fmoles. The Flashplate were let equilibrate at room temperature for one hour before the addition of the components of the assay mixture. The binding buffer was: 50 mM Tris-HCl, pH 7.4, containing 10 mM MgCl2, 0.5 mM EDTA and 0.5% BSA. The radioligand was [^125I]LSD at a final concentration of 0.82 nM. Nonspecific binding was determined with 50 μM of Clozapine. The assay volume was 25 μl. TopSeal-A were applied onto Flashplate microplates and they were incubated at room temperature for 240 minutes in darkness. The radioactivity were quantified by liquid scintillation spectrophotometry (Wallac 1450 Microbeta Trilux) with a count delay of 4 minutes prior to counting and a counting time of 30 seconds per well. Competition binding data were analyzed by using the LIGAND program (Munson and Rodbard, LIGAND: A versatile, computerized approach for characterization of ligand-binding systems. Anal. Biochem. 107: 220-239, 1980) and assays were performed in triplicate determinations for each point.

T1 sequence (P34969 whole entry): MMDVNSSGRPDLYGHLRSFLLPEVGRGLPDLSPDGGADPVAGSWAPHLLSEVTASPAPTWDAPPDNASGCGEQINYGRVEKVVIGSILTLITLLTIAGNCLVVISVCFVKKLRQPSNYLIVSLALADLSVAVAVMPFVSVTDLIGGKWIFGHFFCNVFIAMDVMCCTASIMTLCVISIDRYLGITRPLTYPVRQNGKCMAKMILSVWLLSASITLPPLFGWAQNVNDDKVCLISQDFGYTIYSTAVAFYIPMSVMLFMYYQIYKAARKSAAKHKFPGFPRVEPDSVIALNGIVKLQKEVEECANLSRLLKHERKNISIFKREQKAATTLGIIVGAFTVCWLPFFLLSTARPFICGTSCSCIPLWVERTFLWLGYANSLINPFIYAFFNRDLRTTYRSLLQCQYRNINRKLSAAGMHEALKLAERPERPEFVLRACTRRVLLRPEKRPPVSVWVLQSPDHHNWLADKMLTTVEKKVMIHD

| Compound | IC50 |
| --- | --- |
| O=S(=O)(c1cc(Cl)ccc1Cl)N1CCC(CN2CCc3ccccc3C2)CC1 [Compound 3, 2-[1-(2,5-Dichloro-benzenesulfonyl)-piperidin-4-ylmethyl]-1,2,3,4-tetrahydro-isoquinoline hydrochloride] | 0.0764 µM |
| O=S(=O)(c1cc(Cl)c(F)cc1F)N1CCC(CN2CCc3ccccc3C2)CC1 [Compound 1, 2-[1-(5-Chloro-2,4-difluoro-benzenesulfonyl)-piperidin-4-ylmethyl]-1,2,3,4-tetrahydroisoquinoline hydrochloride] | 0.0702 µM |
| O=S(=O)(c1ccccc1Cl)N1CCC(CN2CCc3ccccc3C2)CC1 [Compound 2, 2-[1-(2-Chloro-benzenesulfonyl)-piperidin-4-ylmethyl]-1,2,3,4-tetrahydro-isoquinoline hydrochloride] | 0.0284 ± 0.0182 µM |
| Cc1cccc(S(=O)(=O)N2CCC(CN3CCc4ccccc4C3)CC2)c1 [Compound 5, 2-[1-(Toluene-3-sulfonyl)-piperidin-4-ylmethyl]-1,2,3,4-tetrahydroisoquinoline hydrochloride] | 0.063 µM |

Continued, values first:

| IC50 | Compound |
| --- | --- |
| 0.0182 ± 0.0037 µM | O=S(=O)(c1cc(F)c(F)cc1Cl)N1CCC(CN2CCc3ccccc3C2)CC1 [Compound 6, 2-[1-(2-Chloro-4,5-difluoro-benzene-sulfonyl)-piperidin-4-ylmethyl]-1,2,3,4-tetrahydroisoquinoline hydrochloride] |
| 0.0834 µM | O=S(=O)(c1cccc2ccccc12)N1CCC(CN2CCc3ccccc3C2)CC1 [Compound 23, 2-[1-(Naphtalene-1-sulfonyl)-piperidin-4-ylmethyl]-1,2,3,4-tetrahydroisoquinoline hydrochloride] |
| 0.0418 µM | COc1cc2c(cc1OC)CN(CC1CCN(S(=O)(=O)c3ccccc3Cl)CC1)CC2 [Compound 77, 2-[1-(2-Chlorobenzene-sulfonyl)-piperidin-4-ylmethyl]-6,7-dimethoxy-1,2,3,4-tetrahydroisoquinoline hydrochloride] |
| 0.0607 µM | COc1cc2c(cc1OC)CN(CC1CCN(S(=O)(=O)c3cc(Cl)ccc3Cl)CC1)CC2 [Compound 85, 2-[1-(2,5-Dichloro-benzenesulfonyl)-piperidin-4-ylmethyl]-6,7-dimethoxy-1,2,3,4-tetrahydro-isoquinoline hydrochloride] |
| 0.0168 ± 0.008 µM | O=S(=O)(c1ccccc1Br)N1CCC(CN2CCc3ccccc3C2)CC1 [Compound 22, 2-[1-(2-Bromo-benzenesulfonyl)-piperidin-4-ylmethyl]-1,2,3,4-tetrahydro-isoquinoline hydrochloride] |
| 0.0361 ± 0.016 µM | Cc1cc(S(=O)(=O)N2CCC(CN3CCc4ccccc4C3)CC2)c(C)cc1Cl [Compound 16, 2-[1-(4-Chloro-2,5-dimethyl-benzenesulfonyl)-piperidin-4-ylmethyl]-1,2,3,4-tetrahydroisoquinoline hydrochloride] |
